Test results from paper PMC4244111, “Structure of Putrescine Aminotransferase from Escherichia coli Provides Insights into the Substrate Specificity among Class III Aminotransferases” (PLoS ONE, 2014).

Target: T1, YgjG (Escherichia coli, UniProt P42588)
T1 construct: gene patA; full-length, C-terminal His6 tag, expressed in E. coli B834(DE3); homodimer; seven N-terminal and one C-terminal residues not visible
Assay: X-ray crystallography, […] Å
Type: binding
Details: crystal pH 7.5; covalent, Schiff base with Lys300; active site at dimer interface

T1 sequence (P42588 whole entry): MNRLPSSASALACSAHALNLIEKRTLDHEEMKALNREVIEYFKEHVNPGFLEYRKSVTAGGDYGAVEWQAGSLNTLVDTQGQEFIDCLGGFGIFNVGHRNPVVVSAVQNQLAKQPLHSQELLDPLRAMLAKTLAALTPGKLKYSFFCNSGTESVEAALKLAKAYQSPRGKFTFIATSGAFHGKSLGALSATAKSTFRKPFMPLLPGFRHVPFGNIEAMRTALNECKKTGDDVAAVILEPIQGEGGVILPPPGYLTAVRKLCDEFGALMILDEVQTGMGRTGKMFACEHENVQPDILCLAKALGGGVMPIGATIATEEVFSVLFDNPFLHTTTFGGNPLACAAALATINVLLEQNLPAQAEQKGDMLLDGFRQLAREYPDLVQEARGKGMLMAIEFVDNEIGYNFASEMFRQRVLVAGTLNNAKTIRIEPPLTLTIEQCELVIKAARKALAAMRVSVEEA

With `Cc1ncc(COP(=O)(O)O)c(C=O)c1O` [pyridoxal-5′-phosphate] the “X-ray crystallography, 2.3 Å” value was “PLP is covalently linked to the strictly conserved lysine residue (Lys300) via a Schiff base linkage”.
